This assay has as its system BAA-1720 MRSA. Kind of assay: MRSA detection from Copan e-Swabs (Table 3). The class given is cell-based, Staphylococcus aureus. As to the method: Bacterial strains were serially diluted and Copan e-Swabs™ were inoculated with 100 μL of LB with approximately the target number of cells of 1000 CFU, 500 CFU, 250 CFU, 125 CFU, 63 CFU, 31 CFU, 16 CFU, or 8 CFU. Swabs were then eluted in 1 mL modified Amies solution (included with commercially available Copan e-Swabs™). 135 μL of this solution was added to each well of a 96-well plate. 15 μL of cefoxitin was added to the wells to reach a final concentration of 1.8 μg/mL, 3.6 μg/mL, or 5.4 μg/mL. The plate was then sealed and incubated at 37° C. for 2 hours. 10 μL of recombinant phage (1.6×10^8 pfu/mL) was added to each well. The plate was then re-sealed and incubated at 37° C. for an additional 2 hours. A master mix was made containing 15 μL 5× lysis buffer, 50 μL luciferase assay buffer, and 1 μL luciferase substrate per well. 65 μL of master mix was added to each well. Luminescence from the reactions was read on a GLOMAX® Navigator and relative luminal units (RLU) for each reaction were plotted and analyzed. RLU values three times greater than an established background RLU level for modified Amies solution (>1500 RLU) were considered positive. The results, shown in Table 3, indicate that a positive MRSA determination was made with 17 CFU in a well, originating from approximately 125 CFU on a swab when incubated with the previously established cut-off of 1.8 μg/mL. Positive results are in bold.

Setting [1] is: target swab CFU 8, detected CFU 1.
Setting [2] is: target swab CFU 16, detected CFU 1.
Setting [3] is: target swab CFU 31, detected CFU 1.
The mark [4] stands for this setting: target swab CFU 63, detected CFU 9.
The mark [5] stands for this setting: target swab CFU 125, detected CFU 17.
Where [6] appears, read: target swab CFU 250, detected CFU 41.
Setting [7] is: target swab CFU 500, detected CFU 72.
Where [8] appears, read: target swab CFU 1000, detected CFU 136.

For the compound `CO[C@@]1(NC(=O)Cc2cccs2)C(=O)N2C(C(=O)O)=C(COC(N)=O)CS[C@@H]21` [Cefoxitin, cefoxitin], the “Cefoxitin (RLU) 1.8 ug/mL” value under setting [1] is on record as 559 RLU; the “Cefoxitin (RLU) 1.8 ug/mL” value under setting [2] was 1179 RLU; the “Cefoxitin (RLU) 1.8 ug/mL” value under setting [3] is on record as 880 RLU; the “Cefoxitin (RLU) 1.8 ug/mL” value under setting [4] is 1280 RLU; the “Cefoxitin (RLU) 1.8 ug/mL” value under setting [5] came out at 2512 RLU; the “Cefoxitin (RLU) 1.8 ug/mL” value under setting [6] is reported as 3766 RLU. The “Cefoxitin (RLU) 1.8 ug/mL” value is recorded as 11590 RLU under setting [7] and 23820 RLU under setting [8]. Moreover, the “Cefoxitin (RLU) 3.6 ug/mL” value is recorded as 429 RLU under setting [1]; 470 RLU under setting [2]; 558 RLU under setting [3]; 1568 RLU under setting [4]; 1337 RLU under setting [5]; 4022 RLU under setting [6]. Besides, the “Cefoxitin (RLU) 3.6 ug/mL” value under setting [7] is on record as 7112 RLU and the “Cefoxitin (RLU) 3.6 ug/mL” value under setting [8] came to 17540 RLU. Further, the “Cefoxitin (RLU) 5.4 ug/mL” value under setting [1] was determined as 336 RLU; the “Cefoxitin (RLU) 5.4 ug/mL” value under setting [2] was 551 RLU; the “Cefoxitin (RLU) 5.4 ug/mL” value under setting [3] was 1405 RLU; the “Cefoxitin (RLU) 5.4 ug/mL” value under setting [4] is reported as 1286 RLU; the “Cefoxitin (RLU) 5.4 ug/mL” value under setting [5] is 2501 RLU; the “Cefoxitin (RLU) 5.4 ug/mL” value under setting [6] is 3374 RLU. Moreover, the “Cefoxitin (RLU) 5.4 ug/mL” value came out at 7648 RLU under setting [7] and 18400 RLU under setting [8].
